{"source": "patent US12161694B2", "about": "“Methods and compositions for regulating innate lymphoid cell inflammatory responses” (The Broad Institute, Inc., priority 2017, dated 2024)", "system": "IL-5 and IL-13 in lung and BALF", "test": "In vivo ILC activation (intranasal), lung analysis: Il5, Il13, Il17rb mRNA in lung mononuclear cells (qPCR), IL-5/IL-13 in BALF (LegendPlex)", "parameters": "species or system mouse", "description": "Mice and in vivo ILC activation. C57Bl/6J mice were purchased from the Jackson Laboratory. Nmur1-LacZ reporter mice with a LacZ cassette knocked into the Nmur1 locus were rederived from Nmur1^tm1.1(KOMP)Vleg sperm obtained from the trans-NIH Knock-Out Mouse Project (KOMP) Repository. Mice were housed under specific-pathogen-free conditions. For experiments, mice were matched for sex and age, and most mice were 6-10 weeks old. […] The total administered volume was 20 μl for all conditions. Mice were randomly assigned to treatment groups after matching for sex and age. […] Mice were treated intranasally with 10 μg HDM on day 0, 7, 8, and 9, prior to sacrifice on day 10. All experiments were conducted in accordance with animal protocols approved by the Harvard Medical Area Standing Committee on Animals or BWH IACUC.\nLung analysis. Mice were sacrificed and perfused with cold PBS. Where indicated, after perfusion, broncho alveolar lavage (BAL) was obtained by injecting 1.5 ml cold PBS into the lungs via a secured tracheal cannula. BALF was centrifuged, and the supernatant was used for analyzing cytokine levels and the cell pellet was resuspended, counted, and used for flow cytometry. Following BAL, lung lobes were dissected. The post-caval lobe was fixed in buffered formalin for histological analysis. Single cell suspensions of the remaining lung parenchymal tissue were prepared with the GentleMACS lung dissociation kit (Miltenyi Biotec) according to the manufacturer's instructions. Where indicated, cells were diluted in 10% Trypan Blue and viable cells counted using a hemocytometer.\nQuantitative real-time PCR. RNA was isolated using RNeasy Plus Mini Kit (Qiagen) and reverse transcribed to cDNA with iScript cDNA Synthesis Kit (Bio-Rad). Gene expression was analyzed by quantitative real-time PCR on a ViiA7 System (Thermo Fisher Scientific) using TaqMan Fast Advanced Master Mix (Thermo Fisher Scientific) with the following primer/probe sets: IL-5 (Mm00439646_m1), IL-13 (Mm00434204_m1), IL-17RB (Mm00444709_m1), Nmur1 (Mm04207994 m1), Nmur2 (Mm00600704_m1), and β-Actin (Applied Biosystems). Expression values were calculated relative to β-Actin detected in the same sample by duplex qPCR.\nCytokine quantification. Cytokine concentrations in BAL fluid, lung and supernatant of in vitro ILC cultures were analyzed by the LegendPlex Mouse Th Cytokine Panel (13-plex) (BioLegend) according to the manufacturer's instructions and analyzed on a FACS Calibur (BD Biosciences).\nMice and in vivo ILC activation. C57Bl/6J mice were purchased from the Jackson Laboratory. Nmur1-LacZ reporter mice with a LacZ cassette knocked into the Nmur1 locus were rederived from Nmur1^tm1.1(KOMP)Vleg sperm obtained from the trans-NIH Knock-Out Mouse Project (KOMP) Repository. NMU-deficient mice (NMU-KO) were rederived from B6.129S2-Nmu<tm1Mko> embryos from the RIKEN BioResource Center. For experiments with Nmur1-LacZ (Nmur1-KO) and NMU-KO mice, littermates that were either homozygous or heterozygous for the wild type allele were used as controls. Mice were housed under specific-pathogen-free conditions. For experiments, mice were matched for sex and age, and most mice were 6-10 weeks old. […] The total administered volume was 20 μl for all conditions. Mice were randomly assigned to treatment groups after matching for sex and age. […]\nLung analysis. […] BALF was centrifuged, and the supernatant was used for analyzing cytokine levels and the cell pellet was resuspended, counted, and used for flow cytometry. […]", "note": "Entries after “also recorded” stand apart in the source; their conditions may differ. Where no end group is shown, it is not given here."}
{"substance": "Neuromedin U (FRVDEEFQSPFASQSRGYFLFRPRN-NH2; listed as Homo sapiens) [NMU, neuropeptide ligand of Nmur1 (US Biological)]", "values": [{"measurement": "IL-33-induced lung inflammation with NMU", "setting": "250 ng IL-33 and 10 μg NMU (FIG. 11)", "value": "little impact; also recorded: does not significantly amplify"}, {"measurement": "allergic lung inflammation induced by the substance alone", "setting": "NMU 20 μg intranasally for 3 consecutive days, no alarmin", "value": "little effect; also recorded: minimal"}, {"measurement": "IL-5 protein in BALF", "setting": "NMU alone 20 μg intranasally for 3 days, LegendPlex", "value": "only trace quantities"}, {"measurement": "IL-25-induced allergic airway inflammation with NMU", "setting": "NMU co-administered with IL-25", "value": "dramatically enhanced; also recorded: amplifies"}, {"measurement": "Il5 and Il13 mRNA expression in lung (lung mononuclear cells)", "setting": "intranasal daily for 3 days (500 ng IL-25, 20 μg NMU), qPCR", "value": "did not cause a significant increase"}]}
